Results taken from PubChem BioAssay (NCI).
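Grown in 96-well plates, cells were treated for 48 hours with each compound at five concentrations. Insufficient inhibition: endpoint recorded as highest concentration tested. The concentration for full growth arrest is given as TGI.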

What was measured:
Experiment in all cases: DTP human tumour cell line panel, 48 h
[1] = test system: NCI-H226 lung
[2] = test system: PC-3 prostate
[3] = test system: NCI/ADR-RES ovarian
[4] = test system: HCT-116 colon
[5] = test system: OVCAR-5 ovarian
[6] = test system: UO-31 renal
[7] = test system: HCT-15 colon
[8] = test system: IGROV1 ovarian
[9] = test system: MCF7 breast
[10] = test system: COLO 205 colon
[11] = test system: MDA-N
[12] = test system: HCC-2998 colon
[13] = test system: SNB-19 CNS
[14] = test system: NCI-H23 lung
[15] = test system: ACHN renal
[16] = test system: HS 578T breast
[17] = test system: 786-0 renal
[18] = test system: MDA-MB-435
[19] = test system: TK-10 renal
[20] = test system: OVCAR-8 ovarian
[21] = test system: MALME-3M melanoma
[22] = test system: UACC-62 melanoma
[23] = test system: NCI-H522 lung
[24] = test system: SF-295 CNS
[25] = test system: M14 melanoma
[26] = test system: SK-MEL-5 melanoma
[27] = test system: BT-549 breast
[28] = test system: SK-MEL-2 melanoma
[29] = test system: CAKI-1 renal
[30] = test system: HOP-92 NSCLC
[31] = test system: NCI-H460 lung
[32] = test system: HOP-62 NSCLC
[33] = test system: EKVX NSCLC
[34] = test system: SN12C renal
[35] = test system: LOX IMVI melanoma
[36] = test system: U251 CNS
[37] = test system: SF-268 CNS
[38] = test system: UACC-257 melanoma
[39] = test system: SNB-75 CNS
[40] = test system: SW-620 colon
[41] = test system: KM12 colon
[42] = test system: SK-OV-3 ovarian
[43] = test system: DU-145 prostate
[44] = test system: A498 renal
[45] = test system: A549 NSCLC
[46] = test system: OVCAR-4 ovarian
[47] = test system: OVCAR-3 ovarian
[48] = test system: T-47D breast
[49] = test system: MDA-MB-231 breast
[50] = test system: HT29 colon
[51] = test system: SK-MEL-28 melanoma
[52] = test system: HL-60(TB) leukemia
[53] = test system: RPMI-8226 leukemia
[54] = test system: SF-539 CNS
[55] = test system: RXF 393 renal
[56] = test system: K-562 leukemia
[57] = test system: CCRF-CEM leukemia
[58] = test system: MOLT-4 leukemia

For `Brc1cccc(Nc2ncnc3sc4c(c23)CCC2(C4)OCCO2)c1`, the TGI [1] was 77.6 µM, the TGI [2] was greater than 100 µM and the TGI [3] was 76.4 µM. The TGI [4] was greater than 100 µM, the TGI [5] was greater than 100 µM and the TGI [6] was greater than 100 µM. The TGI [7] was greater than 100 µM, the TGI [8] was 30.9 µM and the TGI [9] was greater than 100 µM. The TGI [10] was 35.6 µM, the TGI [11] was greater than 100 µM and the TGI [12] was 72.1 µM. It also gave a TGI [13] greater than 100 µM, a TGI [14] greater than 100 µM and a TGI [15] greater than 100 µM. It also gave a TGI [16] greater than 100 µM, a TGI [17] greater than 100 µM and a TGI [18] of 87 µM. For the same molecule, the TGI [19] was 68.9 µM, the TGI [20] was greater than 100 µM and the TGI [21] was greater than 100 µM. The TGI [22] was 70.5 µM, the TGI [23] was 33.8 µM and the TGI [24] was greater than 100 µM. It also gave a TGI [25] of 68.6 µM, a TGI [26] of 32.3 µM and a TGI [27] of 75.2 µM. The TGI [28] was 79.7 µM, the TGI [29] was greater than 100 µM and the TGI [30] was 48.6 µM. The TGI [31] was greater than 100 µM, the TGI [32] was greater than 100 µM and the TGI [33] was greater than 100 µM. For the same molecule, the TGI [34] was greater than 100 µM, the TGI [35] was 40.9 µM and the TGI [36] was greater than 100 µM. For the same molecule, the TGI [37] was greater than 100 µM, the TGI [38] was 91.4 µM and the TGI [39] was 80.9 µM. The TGI [40] was 28.9 µM, the TGI [41] was 80.4 µM and the TGI [42] was greater than 100 µM. The TGI [43] was 50.1 µM, the TGI [44] was 42 µM and the TGI [45] was greater than 100 µM. It also gave a TGI [46] of 94.5 µM, a TGI [47] greater than 100 µM and a TGI [48] of 40.9 µM. For the same molecule, the TGI [49] was greater than 100 µM and the TGI [50] was greater than 100 µM.
In the case of `COC(=O)[C@]1(C)CCC[C@]2(C)[C@H]3CC[C@]4(C(C)C)OO[C@@H](O4)[C@]34O[C@@H]4C[C@H]21`, the TGI [51] is reported as greater than 63.9 µM, the TGI [1] is reported as 13.5 µM and the TGI [2] is reported as 3.11 µM. It also gave a TGI [3] of 30.9 µM, a TGI [4] of 3.03 µM and a TGI [5] of 16.3 µM. For the same molecule, the TGI [6] was 1.46 µM, the TGI [7] was 7.06 µM and the TGI [8] was 0.336 µM. For the same molecule, the TGI [9] was 5.75 µM, the TGI [10] was 5.2 µM and the TGI [11] was 6.13 µM. The TGI [12] was 4.88 µM, the TGI [13] was 24.5 µM and the TGI [14] was 23.5 µM. For the same molecule, the TGI [15] was 1.75 µM, the TGI [16] was 8.65 µM and the TGI [17] was 3.49 µM. It also gave a TGI [52] of 4.88 µM, a TGI [18] of 3.89 µM and a TGI [19] of 12.2 µM. For the same molecule, the TGI [20] was 26.5 µM, the TGI [21] was 20.5 µM and the TGI [22] was 17.7 µM. For the same molecule, the TGI [23] was 3.43 µM, the TGI [53] was greater than 100 µM and the TGI [24] was 8.77 µM. It also gave a TGI [25] of 17.3 µM, a TGI [26] of 8.02 µM and a TGI [27] of 10.9 µM. For the same molecule, the TGI [28] was 29.1 µM, the TGI [54] was greater than 55.6 µM and the TGI [29] was 0.927 µM. The TGI [30] was 4.14 µM, the TGI [31] was 3.88 µM and the TGI [32] was 7 µM. The TGI [33] was 3.71 µM, the TGI [55] was 11.6 µM and the TGI [34] was 12 µM. It also gave a TGI [35] of 1.04 µM, a TGI [36] of 13.5 µM and a TGI [37] of 5.31 µM. It also gave a TGI [38] of 32.1 µM, a TGI [39] of 11.2 µM and a TGI [40] greater than 33.7 µM. For the same molecule, the TGI [41] was 11.2 µM, the TGI [42] was 4.83 µM and the TGI [43] was 3.07 µM. The TGI [45] was 3.56 µM, the TGI [46] was 3.73 µM and the TGI [47] was 3.65 µM. For the same molecule, the TGI [48] was 3.84 µM, the TGI [56] was greater than 100 µM and the TGI [57] was greater than 100 µM. It also gave a TGI [49] of 15 µM and a TGI [50] of 3.91 µM.
For `COC1OC(Cn2c(C)nc(Br)c2Br)C(O)C(O)C1O` (configuration not stated), the TGI [51] was greater than 100 µM, the TGI [2] was greater than 100 µM and the TGI [3] was greater than 100 µM. It also gave a TGI [4] greater than 100 µM, a TGI [5] greater than 100 µM and a TGI [6] greater than 100 µM. For the same molecule, the TGI [7] was greater than 100 µM, the TGI [8] was greater than 100 µM and the TGI [9] was greater than 100 µM. It also gave a TGI [10] greater than 100 µM, a TGI [11] greater than 100 µM and a TGI [12] greater than 100 µM. For the same molecule, the TGI [13] was greater than 100 µM, the TGI [14] was greater than 100 µM and the TGI [15] was greater than 100 µM. It also gave a TGI [16] greater than 100 µM, a TGI [17] greater than 100 µM and a TGI [18] greater than 100 µM. For the same molecule, the TGI [58] was greater than 100 µM, the TGI [20] was greater than 100 µM and the TGI [21] was greater than 100 µM. For the same molecule, the TGI [22] was greater than 100 µM, the TGI [23] was greater than 100 µM and the TGI [53] was greater than 100 µM. For the same molecule, the TGI [24] was greater than 100 µM, the TGI [25] was greater than 100 µM and the TGI [26] was greater than 100 µM. It also gave a TGI [27] greater than 100 µM, a TGI [28] greater than 100 µM and a TGI [29] greater than 100 µM. It also gave a TGI [30] greater than 100 µM, a TGI [31] greater than 100 µM and a TGI [32] greater than 100 µM. The TGI [33] was greater than 100 µM, the TGI [55] was greater than 100 µM and the TGI [36] was greater than 100 µM. For the same molecule, the TGI [38] was greater than 100 µM, the TGI [39] was greater than 100 µM and the TGI [40] was greater than 100 µM. It also gave a TGI [41] greater than 100 µM, a TGI [42] greater than 100 µM and a TGI [43] greater than 100 µM. For the same molecule, the TGI [44] was greater than 100 µM, the TGI [45] was greater than 100 µM and the TGI [46] was greater than 100 µM. For the same molecule, the TGI [47] was greater than 100 µM, the TGI [48] was greater than 100 µM and the TGI [56] was greater than 100 µM. It also gave a TGI [57] greater than 100 µM, a TGI [49] greater than 100 µM and a TGI [50] greater than 100 µM.
